Article PMC6843786, “Temporin-SHa and Its Analogs as Potential Candidates for the Treatment of Helicobacter pylori” (Biomolecules, 2019)
Where two headings read alike, the source gives them in different places. Non-standard residues stand in square brackets, D forms with d. Residues, ends and D or L forms follow the SMILES beside them.

Tests used:
[1] = system: N87 cells; assay: In vitro toxicity assay using human gastric cells (resazurin); assay type: cell-based
Description: [26] Human gastric cells N87 (ATCC CRL-5822) were cultured in RPMI-1640 medium supplemented with 10% fetal calf serum (FCS), 1% L-glutamine and 1% antibiotics (all from Invitrogen, Carlsbad, CA, USA) and were routinely seeded onto 25 cm^2 flasks maintained in a 5% CO2 incubator at 37 °C. For the toxicity assay, cells grown on 25 cm^2 flasks were detached using trypsin–EDTA solution (from Thermofisher), counted using Mallasez counting chamber and seeded into 96-well cell culture plates (Greiner Bio-one) at approximately 10^4 cells per well. The cells were left to grow for 48–72 h at 37 °C in a 5% CO2 incubator until they reached confluence. Plates were then aspirated and increasing concentrations of peptides were added to the cells for 48 h at 37 °C in a 5% CO2 incubator, volume of water corresponding to the volume of peptides being used as negative control. At the end of the incubation, wells were aspirated, and cell viability was evaluated using resazurin-based in vitro toxicity assay kit (Sigma-Aldrich) following manufacturer’s instructions. Briefly, resazurin stock solution was diluted 1:10 in sterile PBS containing calcium and magnesium (PBS^++, pH 7.4) and empty wells were filled with 100 µL of the diluted solution. After 4 h incubation at 37 °C, fluorescence intensity was measured using microplate reader (Synergy Mx, Biotek) with an excitation wavelength of 530 nm and an emission wavelength of 590 nm. The fluorescence values were normalized by the controls and expressed as percent viability.

[2] = system: clinical strains of H. pylori; settings: for MIC: MH + 10% FBS + 2% isovitale-X
From the text: (§1) H. pylori used in this study were either the reference strain obtained from the American Type Culture Collection (ATCC 43504) or clinical strains received frozen from our collaborator Josette Raymond from Hospital Cochin, Paris. Strains were obtained from patients who underwent a gastroendoscopy performed for various gastro-intestinal disorders according to the recommendations of Haute Autorité de Santé (HAS). During the endoscopy, biopsy samples were taken from antrum and corpus. Samples were then crushed, and the material was used for bacterial culture and molecular methods. An antibiogram was performed and strains were then frozen at -80 °C in a broth with 10% glycerol. Bacteria were cultured as previously described. Briefly, H. pylori (ATCC 43504) was cultured in brain heart infusion (BHI) and incubated at 37 °C for 16 h in microaerophilic condition in BD GasPak EZ using BD GasPak EZ CampyPak container system sachets (BD Biosciences, Le Pont-de-Claix, France). For clinical strains, a sample from the frozen bacteria was streaked on Blood Agar (Base) (Sigma-Aldrich, Illkirch-Graffenstaden, France) supplemented with 5% horse defibrinated blood (Fisher Scientific, Les Ulis, France) and 2% isovitale-X (Fisher Scientific, Illkirch-Graffenstaden, France). The petri dishes were then incubated at 37 °C for 4–7 days in microaerophilic condition. Then, a colony is transferred to 3 mL Mueller Hinton (MH) broth supplemented with 10% fetal bovine serum (FBS) and 2% isovitale-X. The cultures were then incubated for 4–7 days until the bacteria grow before further experiments.
(§2) Briefly, after the growth of H. pylori in liquid culture the optical density (OD) of the bacterial suspensions were read at 600 nm and adjusted to one. Stock solutions of the peptides at 1 mM were prepared in sterile water. Bacteria were diluted in medium to reach bacterial density around 10^5 bacteria/mL. One-hundred microliters per well of bacterial suspension were then added into sterile polypropylene 96-well microplates (Greiner BioOne, Paris, France) and exposed to increasing concentrations of peptides (from zero to 100 µM, 1:2 serial dilution). […] Plates were incubated at 37 °C for 24 h for H. pylori (ATCC 43504) and for 4–7 days for the clinical strains. H. pylori was tested in microaerophilic conditions generated using micro-anaerobic BD GasPak system. At the end of the incubation, OD600nm was measured using microplate reader (Synergy Mx, Biotek, Colmar, France). The MIC was defined as the lowest concentration of drug that inhibited visible growth of the organism. Experiments were conducted in independent triplicate (n = 3).

[3] = system: H. pylori (ATCC 43504)
From the text: as §1, §2

[4] = system: total lipids extracted from H. pylori (ATCC 43504); assay: Lipid insertion assay (lipid monolayer, critical pressure of insertion); parameters: species or system biophysical; settings: peptide 1 µM, PBS pH 7.4, from the line fits of Figure 4
Description: Peptide-lipid interaction was measured using reconstituted lipid monolayer at the air-water interface as previously described. Total lipids were extracted from overnight cultures of H. pylori (ATCC 43504) using Folch extraction procedure as previously described. Extracted total lipids were dried, resolubilized in chloroform:methanol (2:1, v/v) and stored at -20 °C under nitrogen. For peptide-lipid interaction assay, total lipid extract was spread using a 50 μL Hamilton's syringe at the surface of 800 μL of sterile PBS creating a lipid monolayer at the air-water interface. Lipids were added until the surface pressure reached the desired value. […] The variation of the surface pressure caused by peptide injection was then continuously monitored using a fully automated microtensiometer (μTROUGH SX, Kibron Inc., Helsinki, Finland) until reaching equilibrium (maximal surface pressure increase being usually obtained after 15-25 min). […] Variation of surface pressure was plotted as a function of initial surface pressure and the critical pressure of insertion of each peptide into H. pylori lipids was calculated as the theoretical value of initial pressure of lipid monolayer not permissive to peptide insertion, i.e., giving a variation of pressure equal to 0 mN/m.

[5] = system: H. pylori (ATCC 43504); remark: listed apart in the source
Description: as §2
(§3) It is also rich with mucus to protect it from the aggressive acidity. For this reason, the impact of mucins and pepsin on the activity of the peptides was investigated. The impact of the gastric mucins on peptide activity was evaluated using a combination of commercial porcine stomach mucins MUC2 and MUC3 (Sigma–Aldrich) at a final concentration of 1 mg/mL sterilized using 0.2 µm filter. This concentration was used based on the estimated concentration of mucins present in the mucus in vivo [27]. The effect of mucins on peptides activity was evaluated by MIC and by time killing assay as explained below. The resistance of the peptides to pepsin was tested as previously described with some changes. […] This concentration was used since it corresponds the pepsin concentration in the stomach (0.5–1 mg/mL).

[6] = system: H. pylori (ATCC 43504); assay: MIC after digestion by pepsin (resistance to pepsin); settings: 4 h at 37 °C with pepsin 1 mg/mL in HCl pH 2
Description: as §2, §3

[7] = system: H. pylori (ATCC 43504); assay: Membrane permeabilization assay (propidium iodide); settings: not told
Description: Bacterial membrane permeabilization was evaluated using the cell-impermeable DNA/RNA probe propidium iodide as previously explained. Logarithmic growing bacterial suspension of H. pylori (ATCC 43504) was prepared from overnight bacterial suspension after 1:10 dilution. After 3 h incubation at 37 °C, in microaerophilic condition, bacterial suspensions were centrifuged for 5 min at 3000× g. Cell pellets were then resuspended in sterile PBS at about […]. Propidium iodide (solution at 1 mg/mL, Sigma Aldrich) was then added to the suspension at a final concentration of 60 µM. 100 µL of this suspension were then transferred into 96-well black plates and were exposed to increasing concentrations of peptides obtained by serial dilution (from zero to 100 µM, 1:2 dilution). […] Kinetics of fluorescence variations (excitation at 530 nm and emission at 590 nm) were then recorded over 240 min of incubation at 37 °C in micro-aerobic condition using a microplate reader (Biotek, Synergy Mx). The effect of the peptides on the membrane integrity was expressed in percentage of permeabilization, CTAB at 300 µM being used as positive control giving 100% permeabilization. All experiments were done in triplicate.

For `CC[C@H](C)[C@H](NC(=O)[C@@H](C)NC(=O)[C@H](CO)NC(=O)[C@H](CC(C)C)NC(=O)[C@@H](N)Cc1ccccc1)C(=O)N[C@H](C(=O)NCC(=O)N[C@@H](CCSC)C(=O)N[C@@H](CC(C)C)C(=O)NCC(=O)N[C@@H](CCCCN)C(=O)N[C@@H](CC(C)C)C(=O)N[C@@H](Cc1ccccc1)C(N)=O)C(C)C` [NST2, H-Phe^1-Leu^2-Ser^3-D-Ala^4-Ile^5-Val^6-Gly^7-Met^8-Leu^9-Gly^10-Lys^11-Leu^12-Phe^13-NH2] (H-FLS[dA]IVGMLGKLF-NH2), which IC50 ([1]; 48 h incubation, resazurin cell viability, read-out: IC50 on N87 Cells) is on record?
Its IC50 is 1250 ± 240 µM.

What about the “increase in toxicity to human gastric cells compared to temporin-SHa” value ([1]; from IC50 on N87 cells) of the same compound?
The value was “around 1.2 fold”.

What about the “MIC values against resistant clinical strains (span over all strains)” value ([2]; all resistant clinical strains, MH + 10% FBS) of the same compound?
The value was 50 to 100 µM.

And the MIC ([2]; clinical strain BM18, resistance Clari/Metro)?
The MIC was 50 µM.

And the MIC ([2]; clinical strain EM68, resistance Clari/Metro)?
Its MIC is 100 µM.

What about the MIC ([2]; clinical strain LN18, resistance Clari) of the same compound?
The MIC was 50 µM.

And the MIC ([2]; clinical strain MF76, resistance Clari/Metro)?
The MIC was 50 µM.

What about the MIC ([2]; clinical strain MP78, resistance Clari/Metro) of the same compound?
The MIC was 50 µM.

And the MIC ([2]; clinical strain MS67, resistance Clari/Metro)?
Its MIC is 50 µM.

What about the MIC ([2]; clinical strain NM44, resistance Clari/Metro) of the same compound?
Its MIC is 50 µM.

And the “MIC on H. pylori (ATCC 43504)” value ([3]; MH medium, 24 h, microaerophilic)?
Its value is 12.5 µM.

What about the “MIC on H. pylori (ATCC 43504) in MH supplemented with 10% FBS” value ([3]; MH supplemented with 10% FBS) of the same compound?
Its value is 50 µM.

And the “reduction in the antibacterial activity compared to temporin-SHa” value ([3]; from MIC on H. pylori (ATCC 43504))?
Its value is 4 times.

And the “critical pressure of insertion (CPI)” value [4]?
Its value is 37.86 mN/m.

And the “increase of MIC in the presence of mucins” value ([5]; MUC2 and MUC3 at 1 mg/mL versus no mucins)?
The value was “two”.

And the “MIC in the Presence of mucins” value ([5]; porcine gastric mucins MUC2 and MUC3 at 1 mg/mL)?
Its value is 25 µM.

What about the “MIC after Digestion by Pepsin” value [6] of the same compound?
The value was >50 µM.

How did the “increase in toxicity to human gastric cells compared to temporin-SHa” value [1] turn out when `CC[C@H](C)[C@H](NC(=O)[C@@H](C)NC(=O)[C@H](CO)NC(=O)[C@H](CC(C)C)NC(=O)[C@@H](N)Cc1ccccc1)C(=O)N[C@H](C(=O)N[C@H](C)C(=O)N[C@@H](CCSC)C(=O)N[C@@H](CC(C)C)C(=O)N[C@H](C)C(=O)N[C@@H](CCCCN)C(=O)N[C@@H](CC(C)C)C(=O)N[C@@H](Cc1ccccc1)C(N)=O)C(C)C` [NST5, H-Phe^1-Leu^2-Ser^3-D-Ala^4-Ile^5-Val^6-D-Ala^7-Met^8-Leu^9-D-Ala^10-Lys^11-Leu^12-Phe^13-NH2] (H-FLS[dA]IV[dA]ML[dA]KLF-NH2) was run?
The value was “twice”.

What about the IC50 ([1]; 48 h) of the same compound?
The IC50 was 762 ± 235 µM.

And the “MIC on H. pylori (ATCC 43504)” value ([3]; ATCC 43504, 24 h)?
The value was 100 µM.

What about the “critical pressure of insertion (CPI)” value [4] of the same compound?
The value was 33.99 mN/m.

What about the “membrane permeabilization of H. pylori (ranking in words)” value [7] of the same compound?
The value was “weakest permeabilization effect”.

Which IC50 ([1]; 48 h) does the source give for `CC[C@H](C)[C@H](NC(=O)[C@H](C)NC(=O)[C@H](CO)NC(=O)[C@H](CC(C)C)NC(=O)[C@@H](N)Cc1ccccc1)C(=O)N[C@H](C(=O)NCC(=O)N[C@@H](CCSC)C(=O)N[C@@H](CC(C)C)C(=O)N[C@@H](C)C(=O)N[C@@H](CCCCN)C(=O)N[C@@H](CC(C)C)C(=O)N[C@@H](Cc1ccccc1)C(N)=O)C(C)C` [NSTL7, H-Phe^1-Leu^2-Ser^3-L-Ala^4-Ile^5-Val^6-Gly^7-Met^8-Leu^9-L-Ala^10-Lys^11-Leu^12-Phe^13-NH2] (H-FLSAIVGMLAKLF-NH2) here?
Its IC50 is 2290 ± 762 µM.

And the “MIC on H. pylori (ATCC 43504)” value ([3]; ATCC 43504, 24 h)?
Its value is 50 µM.

And the “critical pressure of insertion (CPI)” value [4]?
The value was “not able to insert at all”.

What about the “membrane permeabilization of H. pylori (ranking in words)” value [7] of the same compound?
The value was “weakest permeabilization effect”.
